Measured values as given in patent US6878722B2, “Substituted cycloalkyl P1′ hepatitis C virus inhibitors” (Bristol-Myers Squibb Company, priority 2002, dated 2005).
Like-named read-outs stand apart in the source and are kept apart here.

Key:
[1] = target: T1, HCV NS3/4A protease complex (BMS strain, genotype 1a) (Hepatitis C virus genotype 1a, UniProt P27958, C1454S); test: Recombinant HCV NS3/4A protease complex FRET peptide assay, BMS strain; format: biochemical; settings: IC50 range, NS3/4A BMS Strain
T1 construct: DNA encoding the recombinant HCV NS3/4A protease complex (amino acids 1027 to 1711) for these strains; inferred from the pET21b vector and Ni-NTA purification; made in house; host or cells: Escherichia coli BL21 (DE3), pET21b
Excerpt: The purpose of this in vitro assay was to measure the inhibition of HCV NS3 protease complexes, derived from the BMS, H77C or J416S strains, as described below, by compounds of the present invention.
Serum from an HCV-infected patient was obtained from Dr. T. Wright, San Francisco Hospital. An engineered full-length cDNA (compliment deoxyribonucleic acid) template of the HCV genome (BMS strain) was constructed from DNA fragments obtained by reverse transcription-PCR (RT-PCR) of serum RNA (ribonucleic acid) and using primers selected on the basis of homology between other genotype 1a strains. […] The infectious clones, H77C (1a genotype) and J4L6S (1b genotype) were obtained from R. Purcell (NIH) and the sequences are published in Genbank (AAB67036, see Yanagi,M., Purcell,R. H., Emerson,S. U. and Bukh,J. Proc. Natl. Acad. Sci. U.S.A. 94(16),8738-8743 (1997); AF054247, see Yanagi,M., St Claire,M., Shapiro,M., Emerson,S. U., Purcell,R. H. and Bukh,J, Virology 244 (1), 161-172. (1998)).
The BMS, H77C and J4L6S strains were used for production of recombinant NS3/4A protease complexes. DNA encoding the recombinant HCV NS3/4A protease complex (amino acids 1027 to 1711) for these strains were manipulated as described by P. Gallinari et al. (see Gallinari P, Paolini C, Brennan D, Nardi C, Steinkuhler C, De Francesco R. Biochemistry. 38(17):5620-32, (1999)). Briefly, a three-lysine solubilizing tail was added at the 3′-end of the NS4A coding region. The cysteine in the P1 position of the NS4A-NS4B cleavage site (amino acid 1711) was changed to a glycine to avoid the proteolytic cleavage of the lysine tag. Furthermore, a cysteine to serine mutation was introduced by PCR at amino acid position 1454 to prevent the autolytic cleavage in the NS3 helicase domain. The variant DNA fragment was cloned in the pET21b bacterial expression vector (Novagen) and the NS3/4A complex was expressed in Escherichia. coli strain BL21 (DE3) (Invitrogen) following the protocol described by P. Gallinari et al. (see Gallinari P, Brennan D, Nardi C, Brunetti M, Tomei L, Steinkuhler C, De Francesco R., J. Virol. 72(8):6758-69 (1998)) with modifications. Briefly, NS3/4A expression was induced with 0.5 mM Isopropyl β-D-1-thiogalactopyranoside (IPTG) for 22 hr at 20° C. […] The cells were resuspended in lysis buffer (10 mL/g) consisting of 25 mM N-(2-Hydroxyethyl)Piperazine-N′-(2-Ethane Sulfonic acid) (HEPES), pH 7.5, 20% glycerol, 500 mM Sodium Chloride (NaCl), 0.5% Triton-X100, 1 ug/ml lysozyme, 5 mM Magnesium Chloride (MgCl2), 1 ug/ml DnaseI, 5 mM β-Mercaptoethanol (βME), Protease inhibitor—Ethylenediamine Tetraacetic acid (EDTA) free (Roche), homogenized and incubated for 20 mins at 4° C. The homogenate was sonicated and clarified by ultra-centrifugation at 235000 g for 1 hr at 4° C. Imidazole was added to the supernatant to a final concentration of 15 mM and the pH adjusted to 8.0. The crude protein extract was loaded on a Nickel-Nitrilotriacetic acid (Ni-NTA) column pre-equilibrated with buffer B (25 mM HEPES, pH 8.0, 20% glycerol, 500 mM NaCl, 0.5% Triton-X100, 15 mM imidazole, 5 mM βME). The sample was loaded at a flow rate of 1 mL/min. The column was washed with 15 column volumes of buffer C (same as buffer B except with 0.2% Triton-X100). The protein was eluted with 5 column volumes of buffer D (same as buffer C except with 200 mM Imidazole).
NS3/4A protease complex-containing fractions were pooled and loaded on a desalting column Superdex-S200 pre-equilibrated with buffer D (25 mM HEPES, pH7.5, 20% glycerol, 300 mM NaCl, 0.2% Triton-X100, 10 mM βME).

[2] = tested on: HCV replicon in Huh7 cells; test: HCV replicon cell-based assay (FRET); settings: Hepatitis C virus
Excerpt: An HCV replicon whole cell system was established as described by Lohmann V, Korner F, Koch J, Herian U, Theilmann L, Bartenschlager R., Science 285(5424):110-3 (1999). This system enabled us to evaluate the effects of our HCV Protease compounds on HCV RNA replication. Briefly, using the HCV strain 1B sequence described in the Lohmann paper (Assession number: AJ238799), an HCV cDNA was generated encoding the 5′ internal ribosome entry site (IRES), the neomycin resistance gene, the EMCV (encephalomyocarditis viurs)-IRES and the HCV nonstructural proteins, NS3-NS5B, and 3′ non-translated region (NTR). In vitro transcripts of the cDNA were transfected into the human hepatoma cell line, Huh7. […] Resulting cell lines were characterized for positive and negative strand RNA production and protein production over time.
Huh7 cells, constitutively expressing the HCV replicon, were grown in Dulbecco's Modified Eagle Media (DMEM) containing 10% Fetal calf serum (FCS) and 1 mg/ml G418 (Gibco-BRL). Cells were seeded the night before (1.5×10^4 cells/well) in 96-well tissue-culture sterile plates. Compound and no compound controls were prepared in DMEM containing 4% FCS, 1:100 Penicillin/Streptomysin, 1:100 L-glutamine and 5% DMSO in the dilution plate (0.5% DMSO final concentration in the assay). Compound/DMSO mixes were added to the cells and incubated for 4 days at 37° C. After 4 days, plates were rinsed thoroughly with Phosphate-Buffered Saline (PBS) (3 times 150 μl). The cells were lysed with 25 μl of a lysis assay reagent containing the FRET peptide (RET S1, as described for the in vitro enzyme assay). The lysis assay reagent was made from 5× cell Luciferase cell culture lysis reagent(Promega #E153A) diluted to 1× with distilled water, NaCl added to 150 mM final, the FRET peptide diluted to 10 μM final from a 2 mM stock in 100% DMSO. The plate was then placed into the Cytofluor 4000 instrument which had been set to 340 nm excitation/490 emission, automatic mode for 21 cycles and the plate read in a kinetic mode. EC50 determinations were carried out as described for the IC50 determinations.

[3] = Huh-7, HCV replicon, read-out: EC50 range

T1 sequence (P27958 1658-1714, looked up, stated change not applied): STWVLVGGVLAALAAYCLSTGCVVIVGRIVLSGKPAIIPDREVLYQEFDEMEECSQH
T1 sequence (P27958 1027-1657, looked up, stated change not applied): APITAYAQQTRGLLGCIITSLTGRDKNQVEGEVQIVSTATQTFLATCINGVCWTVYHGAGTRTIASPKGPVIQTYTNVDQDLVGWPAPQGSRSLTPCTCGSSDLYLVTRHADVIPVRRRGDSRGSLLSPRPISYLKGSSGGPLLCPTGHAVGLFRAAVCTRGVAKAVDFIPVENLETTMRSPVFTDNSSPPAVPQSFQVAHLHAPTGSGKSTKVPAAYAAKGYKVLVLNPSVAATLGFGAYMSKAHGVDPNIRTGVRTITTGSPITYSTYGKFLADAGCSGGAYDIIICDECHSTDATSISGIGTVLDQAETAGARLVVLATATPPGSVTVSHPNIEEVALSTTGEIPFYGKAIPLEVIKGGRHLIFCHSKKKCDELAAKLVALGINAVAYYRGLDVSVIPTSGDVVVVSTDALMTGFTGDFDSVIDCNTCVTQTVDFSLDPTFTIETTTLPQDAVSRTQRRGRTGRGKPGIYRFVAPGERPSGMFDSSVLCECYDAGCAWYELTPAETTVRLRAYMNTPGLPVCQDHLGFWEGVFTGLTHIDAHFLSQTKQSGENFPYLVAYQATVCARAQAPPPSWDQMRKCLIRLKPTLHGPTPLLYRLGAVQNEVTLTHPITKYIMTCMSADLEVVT

SMILES | IC50 [1] [nM] | EC50 [2, 3] [nM] | EC50 ([2]; Huh-7, read-out: EC50 range) [nM]
C=C[C@@H]1C[C@]1(NC(=O)[C@@H]1C[C@@H](Oc2cc(-c3ccccc3)nc3cc(OC)ccc23)CN1C(=O)[C@@H](NC(=O)OC(C)(C)C)C(C)(C)C)C(=O)NS(=O)(=O)C1(Cc2ccc(F)cc2)CC1 [Compound 40, {1-[2-{1-[1-(4-Fluoro-benzyl)-cyclopropanesulfonylaminocarbonyl]-2-vinyl-cyclopropylcarbamoyl}-4-(7-methoxy-2-phenyl-quinolin-4-yloxy)-pyrrolidine-1-carbonyl]-2,2-dimethyl-propyl}-carbamic acid tert-butyl ester] | < 50 | 50 to 500 | –
C=C[C@@H]1C[C@]1(NC(=O)[C@@H]1C[C@@H](Oc2cc(-c3ccccc3)nc3cc(OC)ccc23)CN1C(=O)[C@@H](NC(=O)OC(C)(C)C)C(C)(C)C)C(=O)NS(=O)(=O)C1(CCOC)CC1 [Compound 35, {1-[2-{1-[1-(2-Methoxy-ethyl)-cyclopropanesulfonylaminocarbonyl]-2-vinyl-cyclopropylcarbamoyl}-4-(7-methoxy-2-phenyl-quinolin-4-yloxy)-pyrrolidine-1-carbonyl]-2,2-dimethyl-propyl}-carbamic acid tert-butyl ester] | < 50 | < 50 | –
C=CC1C[C@]1(NC(=O)[C@@H]1C[C@@H](Oc2cc(-c3ccccc3)nc3cc(OC)ccc23)CN1C(=O)[C@@H](NC(=O)OC1CCCC1)C(C)(C)C)C(=O)NS(=O)(=O)C1(C)CC1 (stereo in doubt) [Compound 12, (1-{4-(7-Methoxy-2-phenyl-quinolin-4-yloxy)-2-[1-(1-methylcyclopropanesulfonyl-aminocarbonyl)-2-vinyl-cyclopropylcarbamoyl]-pyrrolidine-1-carbonyl}-2,2-dimethylpropyl)carbamic acid cyclopentyl ester] | < 50 | < 50 | –
C=C[C@@H]1C[C@]1(NC(=O)[C@@H]1C[C@@H](Oc2cc(-c3ccccc3)nc3cc(OC)ccc23)CN1C(=O)[C@@H](NC(=O)OC(C)(C)C)C(C)(C)C)C(=O)NS(=O)(=O)C1(Cc2c(C)noc2C)CC1 [Compound 50, {1-[2-{1-[1-(3,5-Dimethyl-isoxazol-4-ylmethyl)-cyclopropanesulfonylaminocarbonyl]-2-vinyl-cyclopropylcarbamoyl}-4-(7-methoxy-2-phenyl-quinolin-4-yloxy)-pyrrolidine-1-carbonyl]-2,2-dimethyl-propyl}-carbamic acid tert-butyl ester] | 50 to 500 | 500 to 5000 | –
C=C[C@@H]1C[C@]1(NC(=O)[C@@H]1C[C@@H](Oc2cc(-c3ccccc3)nc3cc(OC)ccc23)CN1C(=O)[C@@H](NC(=O)OC(C)(C)C)C(C)(C)C)C(=O)NS(=O)(=O)C1(C=C(C)C)CC1 [Compound 44, [1-(4-(7-Methoxy-2-phenyl-quinolin-4-yloxy)-2-{1-[1-(2-methyl-propenyl)-cyclopropanesulfonylaminocarbonyl]-2-vinyl-cyclopropylcarbamoyl}-pyrrolidine-1-carbonyl)-2,2-dimethyl-propyl]-carbamic acid tert-butyl ester] | < 50 | 50 to 500 | –
C=C[C@@H]1C[C@]1(NC(=O)[C@@H]1C[C@@H](Oc2cc(-c3ccccc3)nc3cc(OC)ccc23)CN1C(=O)[C@@H](NC(=O)OC1(C(=O)OCC)CC1)C(C)(C)C)C(=O)NS(=O)(=O)C1(Cc2ccccc2)CC1 [Compound 81] | 50 to 500 | – | 50 to 500
C=C[C@@H]1C[C@]1(NC(=O)[C@@H]1C[C@@H](Oc2cc(-c3ccccc3)nc3cc(OC)ccc23)CN1C(=O)[C@@H](NC(=O)Oc1ccccc1)C(C)(C)C)C(=O)NS(=O)(=O)C1(Cc2ccccc2)CC1 [Compound 101] | 50 to 500 | 500 to 5000 | –
C=C[C@@H]1C[C@]1(NC(=O)[C@@H]1C[C@@H](Oc2cc(-c3ccccc3)nc3cc(OC)ccc23)CN1C(=O)[C@@H](NC(=O)COC)C(C)(C)C)C(=O)NS(=O)(=O)C1(Cc2ccccc2)CC1 [Compound 111] | 50 to 500 | 50 to 500 | –
C=C[C@@H]1C[C@]1(NC(=O)[C@@H]1C[C@@H](Oc2ccnc3cc(Cl)ccc23)CN1C(=O)[C@@H](NC(=O)OC1CCCC1)C(C)(C)C)C(=O)NS(=O)(=O)C1(C)CC1 [Compound 63, (1-{4-(7-Chloro-quinolin-4-yloxy)-2-[1-(1-methyl-cyclopropanesulfonylaminocarbonyl)-2-vinyl-cyclopropylcarbamoyl]-pyrrolidine-1-carbonyl}-2,2-dimethyl-propyl)-carbamic acid cyclopentyl ester] | < 50 | < 50 | –
C=C[C@@H]1C[C@]1(NC(=O)C1CC(Oc2cc(-c3ccccc3)nc3cc(OC)ccc23)CN1C(=O)[C@@H](NC(=O)N(C)C(C)(C)C)C(C)(C)C)C(=O)NS(=O)(=O)C1(CC2CC2)CC1 (some centres unmarked) [Compound 120] | < 50 | 50 to 500 | –
COc1ccc2c(O[C@@H]3C[C@@H](C(=O)NC4(C(=O)NS(=O)(=O)C5(C(=O)c6ccccc6)CC5)CC4)N(C(=O)[C@@H](NC(=O)OC(C)(C)C)C(C)(C)C)C3)cc(-c3ccccc3)nc2c1 [Compound 73] | 500 to 5000 | – | –
C=C[C@@H]1C[C@]1(NC(=O)[C@@H]1C[C@@H](Oc2cc(-c3ccccc3)nc3cc(OC)ccc23)CN1C(=O)[C@@H](NC(=O)[C@@H]1COc2ccccc2O1)C(C)(C)C)C(=O)NS(=O)(=O)C1(Cc2ccccc2)CC1 [Compound 113] | 500 to 5000 | – | –
C=C[C@@H]1C[C@]1(NC(=O)[C@@H]1C[C@@H](Oc2cc(-c3ccccc3)nc3cc(OC)ccc23)CN1C(=O)[C@@H](NC(=O)O[C@@H]1C[C@H](C)CC[C@H]1C(C)C)C(C)(C)C)C(=O)NS(=O)(=O)C1(Cc2ccccc2)CC1 [Compound 109] | 500 to 5000 | – | –
